Tests used:
anti-OvA IgE = test: Titer of anti-OvA IgE in serum and BAL by solid phase IFA, ovalbumin asthma model; assay type: in vivo, mice of the Balb/C line; conditions: for Titer IgE BAL, dilution 1:8, % of average of the control group / Titer IgE of serum, dilution 1:640, % of average of the control group: animals 6 to 8 weeks; for Titer IgE BAL, dilution 1:32, % of average of the control group / Titer IgE of serum, dilution 1:400, % of average of the control group: animals 18 to 20 weeks
Excerpt: Female, non-pathogenic mice of the Balb/C line (“Pushchtino” laboratory animal breeders) were kept under conditions of an SPF-vivarium at a constant temperature, 12-hour day/night cycle, and received sterile feed and water ad libitum. In two series of experiments, mice from 6-8 weeks and 18-20 weeks of age were used at the beginning of the experiment, respectively.
The animals were immunized twice at 5-day intervals with an ovalbumin solution (Sigma) in an adjuvant based on ammonium sulfate at a dosage of 8 μg per mouse. SCV-07 was administered intra-abdominally in a volume of 200 μL at a dosage of 0.1 or 1.0 μg/kg in PBS once a day from 6 through 11 days after the first immunization. The control group received physiological saline on the same days. Each group comprised 6 to 10 animals. On the 12th, 16th and 20th days after the first immunization, the animals were then placed in a hermetic box, in which an aerosol of 1% ovalbumin solution (OvA) in PBS was generated with an ultrasonic nebulizer LD-207U (Little Doctor) for 1 minute with continuous mixing of air. The duration of exposure of the animals to the aerosol was 15 minutes. Analysis of the severity of experimental allergic asthma was carried out 24 hours after the last aerosol exposure.
The peripheral blood was collected from the retro-orbital sinus. The titer of anti-OvA IgE in the serum and bronchoalveolar lavage was determined with solid phase IFA according to the following scheme. Rat antibodies to murine IgE labeled with biotin (Caltag) were introduced to a 96-well plate for IFA ((Corning Costar) in the dilution recommended by the manufacturer (100 μL/well), incubated for an hour at room temperature and washed. Serum samples or BAL were then introduced in successive dilutions and incubated at room temperature for an hour and washed. OvA was then added, labeled with horseradish peroxidase, incubated on a shaker for an hour at room temperature, washed and the substrate for peroxidase introduced (OPD, Sigma) and incubated for 15 minutes. The reaction was stopped by adding 1 M H2SO4 and the plates were analyzed on a Victor2 spectrophotometer (Wallac) at a wavelength of 450 nm. For quantitative comparison of the titers of the antigen-specific IgE after subtracting the background, we calculated the average optical density in each dilution for samples of the animal control group, and expressed the optical densities in the samples from all animals in the experiment in corresponding dilution as the percentages of the values obtained.

[1] = test system: infiltration of the lung tissue; test: Morphometric peribronchial and perivascular infiltration of lung tissue, ovalbumin asthma model; assay type: in vivo, mice of the Balb/C line; conditions: age group not given
Excerpt: Female, non-pathogenic mice of the Balb/C line (“Pushchtino” laboratory animal breeders) were kept under conditions of an SPF-vivarium at a constant temperature, 12-hour day/night cycle, and received sterile feed and water ad libitum. In two series of experiments, mice from 6-8 weeks and 18-20 weeks of age were used at the beginning of the experiment, respectively. The animals were immunized twice at 5-day intervals with an ovalbumin solution (Sigma) in an adjuvant based on ammonium sulfate at a dosage of 8 μg per mouse. SCV-07 was administered intra-abdominally in a volume of 200 μL at a dosage of 0.1 or 1.0 μg/kg in PBS once a day from 6 through 11 days after the first immunization. The control group received physiological saline on the same days. Each group comprised 6 to 10 animals. On the 12th, 16th and 20th days after the first immunization, the animals were then placed in a hermetic box, in which an aerosol of 1% ovalbumin solution (OvA) in PBS was generated with an ultrasonic nebulizer LD-207U (Little Doctor) for 1 minute with continuous mixing of air. The duration of exposure of the animals to the aerosol was 15 minutes. Analysis of the severity of experimental allergic asthma was carried out 24 hours after the last aerosol exposure. […] Sections of […] were prepared. The sections were stained with hematoxylin-eosin to evaluate the intensity of cell infiltration and Schiff-iodic acid to count the number of goblet cells. Quantitative evaluation of the peribronchial and perivascular infiltration was accomplished morphometrically with the Scion Image program package. Three bronchi and three vessels were analyzed on sections of the lungs from each animal. The area of the infiltration was calculated as the difference between the area of the tissue containing bronchi or vessels and the infiltration surrounding it, and the area of the vessel or bronchus itself. The indices of infiltration were calculated as the ratio of the area of the infiltration to the area of the vessel or bronchus.

interferon-γ = test: ConA-induced IFN-γ production by splenocytes after intra-abdominal SCV-07; assay type: in vivo, mice; conditions: 1 μg/kg, five daily intra-abdominal injections; ConA 5 μg/mL
Description: SCV-07 was administered to intact wild mice in the form of five daily intra-abdominal injections at dosages of 0.1 and 1.0 μg/kg of body weight. After this, isolation of spleen cells was carried out the cytokine synthesis was induced in the culture by stimulating the cells with concanavalin A at a dosage of 5 μg/mL. The levels of the synthesized cytokines were determined by quantitative immunoenzyme analysis. […] The changes on ConA-induced production of two other [sic] cytokines—IFN-γ and IL-4, as is apparent from FIG. 1, were reciprocal in nature.

Question: How did the “Titer IgE BAL, dilution 1:8, % of average of the control group” value (anti-OvA IgE; 0.1 μg/kg) turn out when N[C@H](CCC(=O)N[C@@H](Cc1c[nH]c2ccccc12)C(=O)O)C(=O)O [SCV-07, γ-D-glutamyl-L-tryptophan] was run?
Answer: 59 ± 33 % of average of the control group

Question: What about the “Titer IgE of serum, dilution 1:640, % of average of the control group” value (anti-OvA IgE; 0.1 μg/kg) of the same compound?
Answer: 86 ± 42 % of average of the control group

Question: And the “Titer IgE BAL, dilution 1:8, % of average of the control group” value (anti-OvA IgE; 1 μg/kg)?
Answer: 46 ± 24 % of average of the control group

Question: What about the “Titer IgE of serum, dilution 1:640, % of average of the control group” value (anti-OvA IgE; 1 μg/kg) of the same compound?
Answer: 65 ± 26 % of average of the control group

Question: And the “Titer IgE BAL, dilution 1:32, % of average of the control group” value (anti-OvA IgE; 0.1 μg/kg)?
Answer: 85 ± 70 % of average of the control group

Question: And the “Titer IgE of serum, dilution 1:400, % of average of the control group” value (anti-OvA IgE; 0.1 μg/kg)?
Answer: 92 ± 44 % of average of the control group

Question: And the “Titer IgE BAL, dilution 1:32, % of average of the control group” value (anti-OvA IgE; 1 μg/kg)?
Answer: 101 ± 51 % of average of the control group

Question: And the “Titer IgE of serum, dilution 1:400, % of average of the control group” value (anti-OvA IgE; 1 μg/kg)?
Answer: 79 ± 46 % of average of the control group

Question: And the “Index of peribronchial infiltration, conventional units” value ([1]; 0.1 μg/kg)?
Answer: 0.39 ± 0.19 conventional units

Question: What about the “Index of perivascular infiltration, conventional units” value ([1]; 0.1 μg/kg) of the same compound?
Answer: 1.67 ± 1.08 conventional units

Question: And the “Index of peribronchial infiltration, conventional units” value ([1]; 1 μg/kg)?
Answer: 0.35 ± 0.14 conventional units

Question: And the “Index of perivascular infiltration, conventional units” value ([1]; 1 μg/kg)?
Answer: 1.48 ± 1.02 conventional units

Question: What about the “Change in ConA-induced IFN-γ production by the splenocytes” value (interferon-γ) of the same compound?
Answer: almost five-fold increase

Source: patent publication US20100204295A1, “TREATMENT OF ALLERGIC DISEASE WITH IMMUNOMODULATOR COMPOUNDS” (SCICLONE PHARMACEUTICALS, INC., priority 2007, published 2010)
